In the NIST ThermoML archive (doi:10.1016/j.jct.2011.08.016):

Assay: xn = mol fraction of the nth substance listed
Conditions: Liquid, Vibrating tube method

CCCCCCCCCC [decane] + CCCCCCC
Conditions | mass density [kg/m3]
323.15 K, 7000 kPa, x2 = 0.0531 | 711.49
323.15 K, 7000 kPa, x2 = 0.2594 | 703.89
323.15 K, 8000 kPa, x2 = 0.0531 | 712.35
323.15 K, 8000 kPa, x2 = 0.2594 | 704.79
323.15 K, 9000 kPa, x2 = 0.0531 | 713.2
323.15 K, 9000 kPa, x2 = 0.2594 | 705.68
323.15 K, 10000 kPa, x2 = 0.0531 | 714.07
323.15 K, 10000 kPa, x2 = 0.2594 | 706.56
323.15 K, 10990 kPa, x2 = 0.0531 | 714.9
323.15 K, 10990 kPa, x2 = 0.2594 | 707.43
323.15 K, 12000 kPa, x2 = 0.0531 | 715.73
323.15 K, 12000 kPa, x2 = 0.2594 | 708.29
323.15 K, 13000 kPa, x2 = 0.0531 | 716.54
323.15 K, 13000 kPa, x2 = 0.2594 | 709.14
323.15 K, 14000 kPa, x2 = 0.0531 | 717.35
323.15 K, 14000 kPa, x2 = 0.2594 | 709.98
323.15 K, 15000 kPa, x2 = 0.0531 | 718.14
323.15 K, 15000 kPa, x2 = 0.2594 | 710.81
323.15 K, 16000 kPa, x2 = 0.0531 | 718.92
323.15 K, 16000 kPa, x2 = 0.2594 | 711.62
323.15 K, 17000 kPa, x2 = 0.0531 | 719.7
323.15 K, 17000 kPa, x2 = 0.2594 | 712.43
323.15 K, 18000 kPa, x2 = 0.0531 | 720.46
323.15 K, 18000 kPa, x2 = 0.2594 | 713.25
323.15 K, 19000 kPa, x2 = 0.0531 | 721.21
323.15 K, 19000 kPa, x2 = 0.2594 | 714.01
323.15 K, 20000 kPa, x2 = 0.0531 | 721.96
323.15 K, 20000 kPa, x2 = 0.2594 | 714.78
323.15 K, 21000 kPa, x2 = 0.0531 | 722.7
323.15 K, 21000 kPa, x2 = 0.2594 | 715.55
323.15 K, 22000 kPa, x2 = 0.0531 | 723.41
323.15 K, 22000 kPa, x2 = 0.2594 | 716.3
323.15 K, 23000 kPa, x2 = 0.0531 | 724.12
323.15 K, 23000 kPa, x2 = 0.2594 | 716.98
323.15 K, 24000 kPa, x2 = 0.0531 | 724.82
323.15 K, 24000 kPa, x2 = 0.2594 | 717.65
323.15 K, 25000 kPa, x2 = 0.0531 | 725.51
323.15 K, 25000 kPa, x2 = 0.2594 | 718.3
323.16 K, 1000 kPa, x2 = 0.777 | 673.59
323.16 K, 2000 kPa, x2 = 0.777 | 674.58
323.16 K, 3000 kPa, x2 = 0.777 | 675.56
323.16 K, 4000 kPa, x2 = 0.777 | 676.57
323.16 K, 5000 kPa, x2 = 0.777 | 677.56
323.16 K, 6000 kPa, x2 = 0.777 | 678.57
323.16 K, 7000 kPa, x2 = 0.777 | 679.58
323.16 K, 8000 kPa, x2 = 0.777 | 680.57
323.16 K, 9000 kPa, x2 = 0.777 | 681.56
323.16 K, 10000 kPa, x2 = 0.777 | 682.54
323.16 K, 10990 kPa, x2 = 0.777 | 683.5
323.16 K, 12000 kPa, x2 = 0.777 | 684.45
323.16 K, 13000 kPa, x2 = 0.777 | 685.39
323.16 K, 14000 kPa, x2 = 0.777 | 686.31
323.16 K, 15000 kPa, x2 = 0.777 | 687.21
323.16 K, 16000 kPa, x2 = 0.777 | 688.1
323.16 K, 17000 kPa, x2 = 0.777 | 688.99
323.16 K, 18000 kPa, x2 = 0.777 | 689.87
323.16 K, 19000 kPa, x2 = 0.777 | 690.73
323.16 K, 20000 kPa, x2 = 0.777 | 691.58
323.16 K, 21000 kPa, x2 = 0.777 | 692.41
323.16 K, 22000 kPa, x2 = 0.777 | 693.22
323.16 K, 23000 kPa, x2 = 0.777 | 693.96
323.16 K, 24000 kPa, x2 = 0.777 | 694.7
323.16 K, 25000 kPa, x2 = 0.777 | 695.42
333.11 K, 1000 kPa, x2 = 0.5219 | 679.05
333.11 K, 2000 kPa, x2 = 0.5219 | 680.06
333.11 K, 3000 kPa, x2 = 0.5219 | 681.02
333.11 K, 4000 kPa, x2 = 0.5219 | 682.02
333.11 K, 5000 kPa, x2 = 0.5219 | 683.02
333.11 K, 6000 kPa, x2 = 0.5219 | 684.02
333.11 K, 7000 kPa, x2 = 0.5219 | 685.02
333.11 K, 8000 kPa, x2 = 0.5219 | 686.03
333.11 K, 9000 kPa, x2 = 0.5219 | 687.04
333.11 K, 10000 kPa, x2 = 0.5219 | 688.03
333.11 K, 10990 kPa, x2 = 0.5219 | 689.01
333.11 K, 12000 kPa, x2 = 0.5219 | 689.97
333.11 K, 13000 kPa, x2 = 0.5219 | 690.92
333.11 K, 14000 kPa, x2 = 0.5219 | 691.85
333.11 K, 15000 kPa, x2 = 0.5219 | 692.77
333.11 K, 16000 kPa, x2 = 0.5219 | 693.68
333.11 K, 17000 kPa, x2 = 0.5219 | 694.58
333.11 K, 18000 kPa, x2 = 0.5219 | 695.49
333.11 K, 19000 kPa, x2 = 0.5219 | 696.33
333.11 K, 20000 kPa, x2 = 0.5219 | 697.15
333.11 K, 21000 kPa, x2 = 0.5219 | 697.97
333.11 K, 22000 kPa, x2 = 0.5219 | 698.76
333.11 K, 23000 kPa, x2 = 0.5219 | 699.54
333.11 K, 24000 kPa, x2 = 0.5219 | 700.3
333.11 K, 25000 kPa, x2 = 0.5219 | 701.04
333.12 K, 1000 kPa, x2 = 0.0531 | 698.2
333.12 K, 1000 kPa, x2 = 0.777 | 665.15
333.12 K, 2000 kPa, x2 = 0.0531 | 699.22
333.12 K, 2000 kPa, x2 = 0.777 | 666.23
333.12 K, 3000 kPa, x2 = 0.0531 | 700.22
333.12 K, 3000 kPa, x2 = 0.777 | 667.33
